Data taken from patent US20260285875A1, “INHIBITORS OF PARG” (858 Therapeutics, Inc., priority 2023, published 2026).

Target: T1, cellular PARG (Homo sapiens, UniProt Q86W56)
T1 construct: endogenous in cells; host or cells: HeLa
Assay: Nuclear PAR accumulation assay (immunofluorescence high-content imaging, MMS-treated HeLa cells)
Type: cell-based
Settings: 1 hour compound then MMS 50 μg/mL for an additional hour
Outline: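 HeLa cells pretreated with compound for 1 h at 37° C, then given 50 μg/mL MMS for another hour. After methanol fixation, PAR was immunostained with DAPI nuclear counterstain; per-nucleus intensity and percent PAR-positive cells were imaged at 20× (≥1,000 cells/well). IC50 from four-parameter logistic fit.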

T1 sequence (Q86W56 whole entry): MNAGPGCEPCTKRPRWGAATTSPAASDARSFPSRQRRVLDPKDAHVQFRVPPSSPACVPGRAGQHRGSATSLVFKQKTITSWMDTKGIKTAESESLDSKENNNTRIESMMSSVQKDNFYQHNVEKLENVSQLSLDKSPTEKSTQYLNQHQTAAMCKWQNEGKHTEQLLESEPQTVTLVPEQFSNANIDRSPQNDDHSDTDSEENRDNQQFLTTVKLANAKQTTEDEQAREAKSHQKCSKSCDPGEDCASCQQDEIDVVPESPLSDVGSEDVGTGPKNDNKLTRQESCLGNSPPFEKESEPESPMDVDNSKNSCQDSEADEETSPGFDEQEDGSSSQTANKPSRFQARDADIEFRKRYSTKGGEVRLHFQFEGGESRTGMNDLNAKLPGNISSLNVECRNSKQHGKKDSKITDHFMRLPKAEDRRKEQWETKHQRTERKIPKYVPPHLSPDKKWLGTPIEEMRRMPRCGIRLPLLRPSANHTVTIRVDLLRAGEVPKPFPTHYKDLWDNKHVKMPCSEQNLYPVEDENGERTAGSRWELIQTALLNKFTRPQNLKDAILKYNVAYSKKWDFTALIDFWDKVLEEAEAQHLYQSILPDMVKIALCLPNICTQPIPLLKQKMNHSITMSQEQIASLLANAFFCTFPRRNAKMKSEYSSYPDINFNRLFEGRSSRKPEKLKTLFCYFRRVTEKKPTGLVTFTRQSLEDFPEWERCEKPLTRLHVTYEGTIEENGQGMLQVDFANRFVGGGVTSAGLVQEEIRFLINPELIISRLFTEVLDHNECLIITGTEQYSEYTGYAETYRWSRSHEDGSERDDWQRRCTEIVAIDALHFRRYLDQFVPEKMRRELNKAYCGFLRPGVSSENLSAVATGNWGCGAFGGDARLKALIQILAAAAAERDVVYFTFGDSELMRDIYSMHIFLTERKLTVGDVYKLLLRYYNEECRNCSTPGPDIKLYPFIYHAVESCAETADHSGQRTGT

Cn1cc(CN2C(=O)c3cc(S(=O)(=O)NC4(C)CC4)ccc3N3C2=NC[C@H]3C#Cc2ccnn2C)cn1 [Example 165, (R)-4-((1-methyl-1H-pyrazol-4-yl)methyl)-1-((1-methyl-1H-pyrazol-5-yl)ethynyl)-N-(1-methylcyclopropyl)-5-oxo-1,2,4,5-tetrahydroimidazo[1,2-a]quinazoline-7-sulfonamide] and Cn1cc(CN2C(=O)c3cc(S(=O)(=O)NC4(C)CC4)ccc3N3C2=NC[C@H]3C#Cc2cnnn2C)cn1 [Example 166, (R)-1-((1-methyl-1H-1,2,3-triazol-5-yl)ethynyl)-4-((1-methyl-1H-pyrazol-4-yl)methyl)-N-(1-methylcyclopropyl)-5-oxo-1,2,4,5-tetrahydroimidazo[1,2-a]quinazoline-7-sulfonamide] cannot be ordered by IC50: less than 100 nM for the first, less than 100 nM for the second.

Compared with CN1C(=O)c2cc(S(=O)(=O)NC3(C)CC3)ccc2N2C1=NCC2C#Cc1cnc2ccccn12 (centres unmarked) [Example 167, 1-(imidazo[1,2-a]pyridin-3-ylethynyl)-4-methyl-N-(1-methylcyclopropyl)-5-oxo-1,2,4,5-tetrahydroimidazo[1,2-a]quinazoline-7-sulfonamide], CN1C(=O)c2cc(S(=O)(=O)NC3(C)CC3)ccc2N2C1=NC[C@H]2C#Cc1cnc2ncccn12 [Example 171, (R)-1-(imidazo[1,2-a]pyrimidin-3-ylethynyl)-4-methyl-N-(1-methylcyclopropyl)-5-oxo-1,2,4,5-tetrahydroimidazo[1,2-a]quinazoline-7-sulfonamide] is higher in IC50: less than 100 nM for the first, 100 to 1000 nM for the second.

CN1C(=O)c2cc(S(=O)(=O)NC3(C)CC3)ccc2N2C1=NCC2C#Cc1c[nH]c2cnccc12 (centres unmarked) [Example 168, 1-((1H-pyrrolo[2,3-c]pyridin-3-yl)ethynyl)-4-methyl-N-(1-methylcyclopropyl)-5-oxo-1,2,4,5-tetrahydroimidazo[1,2-a]quinazoline-7-sulfonamide] and CN1C(=O)c2cc(S(=O)(=O)NC3(C)CC3)ccc2N2C1=NCC2C#Cc1cc2cccnc2[nH]1 (centres unmarked) [Example 169, 1-((1H-pyrrolo[2,3-b]pyridin-2-yl)ethynyl)-4-methyl-N-(1-methylcyclopropyl)-5-oxo-1,2,4,5-tetrahydroimidazo[1,2-a]quinazoline-7-sulfonamide] fall in the same range of IC50: 100 to 1000 nM for the first, 100 to 1000 nM for the second.

CN1C(=O)c2cc(S(=O)(=O)NC3(C)CC3)ccc2N2C1=NCC2C#Cc1ccnc2c1OCCO2 (centres unmarked) [Example 170, 1-((2,3-dihydro-[1,4]dioxino[2,3-b]pyridin-8-yl)ethynyl)-4-methyl-N-(1-methylcyclopropyl)-5-oxo-1,2,4,5-tetrahydroimidazo[1,2-a]quinazoline-7-sulfonamide] and CN1C(=O)c2cc(S(=O)(=O)NC3(C)CC3)ccc2N2C1=NCC2C#Cc1ccc2nnn(C)c2c1 (centres unmarked) [Example 172, 4-methyl-1-((1-methyl-1H-benzo[d][1,2,3]triazol-6-yl)ethynyl)-N-(1-methylcyclopropyl)-5-oxo-1,2,4,5-tetrahydroimidazo[1,2-a]quinazoline-7-sulfonamide] cannot be ordered by IC50: less than 100 nM for the first, less than 100 nM for the second.

C#C[C@@H]1[C@H](C)N=C2N(Cc3cnn(C)c3)C(=O)c3cc(S(=O)(=O)NC4(C)CC4)ccc3N21 [Example 173, (1R,2S)-1-ethynyl-2-methyl-4-((1-methyl-1H-pyrazol-4-yl)methyl)-N-(1-methylcyclopropyl)-5-oxo-1,2,4,5-tetrahydroimidazo[1,2-a]quinazoline-7-sulfonamide] and CN1C(=O)c2cc(S(=O)(=O)NC3(C)CC3)ccc2N2C1=NCC2C#Cc1cnn(C)c(=O)c1 (centres unmarked) [Example 175, 4-methyl-1-((1-methyl-6-oxo-1,6-dihydropyridazin-4-yl)ethynyl)-N-(1-methylcyclopropyl)-5-oxo-1,2,4,5-tetrahydroimidazo[1,2-a]quinazoline-7-sulfonamide] cannot be ordered by IC50: less than 100 nM for the first, less than 100 nM for the second.

Work on CN1C(=O)c2cc(S(=O)(=O)NC3(C)CC3)ccc2N2C1=NC[C@H]2C#Cc1c2ccccc2nn1C [Example 174, (R)-4-methyl-1-((2-methyl-2H-indazol-3-yl)ethynyl)-N-(1-methylcyclopropyl)-5-oxo-1,2,4,5-tetrahydroimidazo[1,2-a]quinazoline-7-sulfonamide] yielded an IC50 of less than 100 nM.
